The values below come from US20180161290A1, “Dosage Regimen of Diaryl Sulfide Derivatives” (Novartis AG, priority 2010, published 2018).

The test system of series [1] is healthy subjects. Nature of the series: Multiple ascending dose study in healthy subjects: blood lymphocyte levels. The series is classed as in vivo, human. Here is the method:
For example in tests on healthy subjects, the maximum percent decrease (geometric mean, 95% confidence interval) from pre-dose blood lymphocyte levels during once daily dosing of compound A for 14 days (28 days for the 2 mg dose level) in healthy subjects was 39% for 0.3 mg, 65% for 0.6 mg, 74% for 1.2 mg, 83% for 2 mg and 77% for 3 mg. The corresponding reduction in the placebo group was 29%, which may be explained by the normal lymphocyte level variability and the definition of the endpoint.
(§1) Multiple ascending doses of compound A were investigated in healthy subjects. 60 subjects in 5 cohorts (12 subjects per cohort) were dosed at 0.3 mg, 0.6 mg, 1.2 mg and 3 mg once daily for 14 days and at 2 mg for 28 days. In each cohort, subjects were randomised between compound A (9 subjects) and placebo (3 subjects).

The test system of a further series is healthy male volunteers. Nature of the series: Double blind, placebo controlled, dose titration, once daily multiple oral dose study (Example 2). The series is classed as in vivo, human. The settings on record: for hourly minimum HR (heart rate) change from baseline: FIG. 3. How it is done: A total of 56 healthy male volunteers were enrolled in a double blind, parallel, placebo controlled, dose titration, once daily, multiple oral dose study. 53 (95%) subjects completed the study.
Increasing doses of 2-amino-2-[4-(3-benzyloxyphenylthio)-2-chlorophenyl]ethyl-propane-1,3-diol (Compound A) starting at 0.3 mg o.d. or 0.5 mg o.d. and ending at the maximal therapeutic dose of 2 mg o.d. were administered to the subjects as specified in Table 1 below.
Each subject participated in a maximal 21-day Screening period, a Baseline period (Day −2), Run-in period (Day −1), a 21-day treatment period, 14-day Follow up period (with a Follow up visit on Day 35) and study completion assessments on Day 42. Subjects were assigned to one of the four groups (#1 or #2 dose titration group, placebo- or fixed-dose group) and received the once daily (o.d.) treatment in a double blinded manner.
On Day -1 (Run-in), all subjects received placebo and underwent baseline assessments including 24 hour Holter monitoring.
All the study drugs were administered between 8:00 and 8:30, immediately after modest breakfast started 30 min prior to dosing. Dosing was performed as closely as practically possible between the subjects (e.g. within 15 min).
The primary variable, the daily number of bradycardia episodes as defined in the primary objective, were modeled by means of a repeated Poisson model adjusted for the number of bradycardia episodes at Baseline, the day, the treatment, and the treatment-by-day interaction. Generalized Estimating Equations were used to estimate the parameters of the model, including the mean (and 95% CI) number of bradycardia episodes for each treatment group on each day.
The primary objective of the study was assessed from the estimated ratio, obtained from the model above, between the mean number of bradycardia episodes on each ‘dose increase day’ in each titration regimen versus the mean number of bradycardia episodes on Day 1 in the fixed-dose group, and from the 95% CI for this ratio.
The treatment effect in term of other measures of bradycardia, including the change from baseline in hourly (daily) minimum and mean heart rates, was also investigated using an appropriate model.

The test system of series [2] is healthy subjects. Nature of the series: Multiple ascending dose study in healthy subjects: effect on heart rate (Example 1). The format is in vivo, human. The note with it: 0.3, 0.6, 1.2, 2 and 3 mg once daily, hourly average heart rate, FIG. 1. How it is done:
The effect on heart rate of 2-amino-2-[4-(3-benzyloxyphenylthio)-2-chlorophenyl]ethyl propane-1,3-diol (Compound A, or KRP203) was measured in healthy subjects over a period of 28 days and compared to placebo.
as §1
The day 28 graphic compares placebo and 2 mg dose.

The subject of series [3] is healthy subjects. The settings on record: 1.25 mg of FTY720; cited from earlier work.

For `NC(CO)(CO)CCc1ccc(Sc2cccc(OCc3ccccc3)c2)cc1Cl` [Compound A, 2-amino-2-[4-(3-benzyloxyphenylthio)-2-chlorophenyl]ethyl-propane-1,3-diol], the “maximum percent decrease (geometric mean) from pre-dose blood lymphocyte levels” value in the series on healthy subjects [1] (0.3 mg once daily for 14 days) came out at 39%; in the series on healthy subjects [1] (0.6 mg once daily for 14 days) it was 65%; with healthy subjects [1] (1.2 mg once daily for 14 days), 74%; in the series with healthy subjects [1] (2 mg once daily for 28 days), 83%; in the series with healthy subjects [1] (3 mg once daily for 14 days) it was 77%. Besides, the “hourly minimum HR (heart rate) change from baseline” value in the series with healthy male volunteers (after Day 13, all subjects) is “no decrease in HR compared to matched baseline”; with healthy male volunteers (fixed dose regimen 2 mg o.d.) it was “maximum decrease in HR on Days 1 & 2 compared to the 2 titration regimens and resolved by day 5”. Besides, the safety and tolerability entry in the series on healthy male volunteers (both titration regimens) is “safe and well tolerated”. In addition, in the series with healthy male volunteers (dose titration groups versus placebo), the “AE (adverse events) profile” value is on record as “No discernable difference”. The “number of bradycardia episodes per day” value in the series with healthy male volunteers (titration regimens T#1 and T#2 versus fixed dose 2 mg day 1, FIG. 2) is listed as “Both titration regimens had less bradycardic episodes compared to fixed dose day 1”. The “SAEs (severe adverse events)” value in the series with healthy male volunteers (titration study, 21-day treatment) is “No SAEs (severe adverse events) were reported”. Moreover, in the series with healthy subjects [2], the “decrease in heart rate following dosing” value was “observed to increase with increasing dosage”.

Consider `CCCCCCCCc1ccc(CCC(N)(CO)CO)cc1` [FTY720], for which the “decrease in heart rate” value with healthy subjects [3] is on record as “approximately 8 beats/min”.
